PubChem BioAssay AID248 (DTP/NCI, 2004)
Values joined by “and” are separate entries in the source; they are usually repeats but may differ in a detail not shown here. Identical values can stand only once. Toxic doses and inconclusive results are not listed.

Test system: L1210 leukemia ip in BDF1 mice, survival T/C
Assay: NCI In Vivo Anticancer Drug Screen. Data for tumor model L1210 Leukemia (intraperitoneal) in B6D2F1 (BDF1) mice
Conditions: endpoint: mean survival time, higher = longer survival
Summary of the method: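 Survival endpoint. Drug-treated group vs vehicle group, expressed as T divided by C. Tumor passaged by transplantation.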

[1] = dose: 100.0 mg/kg/injection, schedule: Q01DX009 (ip), vehicle: saline
[2] = dose: 100.0 mg/kg/injection, schedule: Q01DX001 (ip), vehicle: saline
[3] = dose: 25.0 mg/kg/injection, schedule: Q01DX009 (ip), vehicle: Klucel (hydroxypropylcellulose) (HPC)
[4] = dose: 50.0 mg/kg/injection, schedule: Q01DX009 (ip), vehicle: Klucel (hydroxypropylcellulose) (HPC)
[5] = dose: 100.0 mg/kg/injection, schedule: Q01DX009 (ip), vehicle: Klucel (hydroxypropylcellulose) (HPC)
[6] = dose: 100.0 mg/kg/injection, schedule: Q04DX003 (ip), vehicle: Klucel (hydroxypropylcellulose) (HPC)
[7] = dose: 400.0 mg/kg/injection, schedule: Q04DX003 (ip), vehicle: Klucel (hydroxypropylcellulose) (HPC)
[8] = dose: 50.0 mg/kg/injection, schedule: Q01DX009 (ip), vehicle: saline
[9] = dose: 200.0 mg/kg/injection, schedule: Q01DX009 (ip), vehicle: Klucel (hydroxypropylcellulose) (HPC)
[10] = dose: 400.0 mg/kg/injection, schedule: Q01DX009 (ip), vehicle: Klucel (hydroxypropylcellulose) (HPC)
[11] = dose: 100.0 mg/kg/injection, schedule: Q01DX009 (ip), vehicle: saline with Tween-80
[12] = dose: 200.0 mg/kg/injection, schedule: Q01DX009 (ip), vehicle: saline with Tween-80
[13] = dose: 50.0 mg/kg/injection, schedule: Q04DX003 (ip), vehicle: saline
[14] = dose: 100.0 mg/kg/injection, schedule: Q04DX003 (ip), vehicle: saline

Structure (SMILES): CSC(=NC#N)SC
- T/C (dose: 1.5 mg/kg/injection, schedule: Q01DX009 (ip), vehicle: Klucel (hydroxypropylcellulose) (HPC)): 100 % of control
- T/C (dose: 1.5 mg/kg/injection, schedule: Q04DX003 (ip), vehicle: Klucel (hydroxypropylcellulose) (HPC)): 100 % of control
- T/C (dose: 3.0 mg/kg/injection, schedule: Q01DX009 (ip), vehicle: Klucel (hydroxypropylcellulose) (HPC)): 101 % of control
- T/C (dose: 3.0 mg/kg/injection, schedule: Q04DX003 (ip), vehicle: Klucel (hydroxypropylcellulose) (HPC)): 90 % of control
- T/C (dose: 6.0 mg/kg/injection, schedule: Q01DX009 (ip), vehicle: Klucel (hydroxypropylcellulose) (HPC)): 95 % of control
- T/C (dose: 6.0 mg/kg/injection, schedule: Q04DX003 (ip), vehicle: Klucel (hydroxypropylcellulose) (HPC)): 97 % of control

Structure (SMILES): CC1(C)N=C(N)N=C(N)N1c1ccc(C(=O)Nc2ccc(S(=O)(=O)F)cc2)cc1
- T/C (dose: 0.8 mg/kg/injection, schedule: Q01DX009 (ip), vehicle: saline): 101 % of control
- T/C (dose: 4.0 mg/kg/injection, schedule: Q01DX009 (ip), vehicle: saline): 100 % of control
- T/C (dose: 20.0 mg/kg/injection, schedule: Q01DX009 (ip), vehicle: saline): 95 % of control
- T/C [1]: 97 % of control
- T/C (dose: 500.0 mg/kg/injection, schedule: Q01DX009 (ip), vehicle: saline): 101 % of control

Structure (SMILES): CC1(C)N=C(N)N=C(N)N1c1ccc(OCC(=O)Nc2cccc(S(=O)(=O)F)c2)cc1
- T/C [2]: 105 % of control
- T/C (dose: 200.0 mg/kg/injection, schedule: Q01DX001 (ip), vehicle: saline): 91 % of control
- T/C (dose: 400.0 mg/kg/injection, schedule: Q01DX001 (ip), vehicle: saline): 107 % of control

Structure (SMILES): CNC(c1ccccc1)C(O)c1ccccc1 (stereo unspecified)
- T/C [3]: 106 % of control
- T/C [4]: 95 % of control
- T/C [5]: 106 % of control
- T/C [6]: 97 % of control

Structure (SMILES): Nc1ncnc(NC2CCCCC2)n1
- T/C (dose: 6.25 mg/kg/injection, schedule: Q01DX009 (ip), vehicle: Klucel (hydroxypropylcellulose) (HPC)): 100 % of control
- T/C (dose: 12.5 mg/kg/injection, schedule: Q01DX009 (ip), vehicle: Klucel (hydroxypropylcellulose) (HPC)): 94 % of control
- T/C [3]: 97 % of control and 98 % of control
- T/C [4]: 111 % of control
- T/C [6]: 91 % of control
- T/C [7]: 98 % of control

Structure (SMILES): COC1OC2COc3ccccc3OC2C(N=C(N)N[N+](=O)[O-])C1O (stereo unspecified)
- T/C (dose: 100.0 mg/kg/injection, schedule: Q01DX009 (ip), vehicle: gum acacia): 97 % of control
- T/C (dose: 200.0 mg/kg/injection, schedule: Q01DX009 (ip), vehicle: gum acacia): 100 % of control
- T/C (dose: 400.0 mg/kg/injection, schedule: Q01DX009 (ip), vehicle: gum acacia): 95 % of control

Structure (SMILES): CC(C)(C)C(=O)CC(=O)C(C)(C)C.CC(C)(C)C(=O)CC(=O)C(C)(C)C.CC(C)(C)C(=O)CC(=O)C(C)(C)C.[Ho]
- T/C (dose: 100.0 mg/kg/injection, schedule: Q04DX003 (ip), vehicle: saline with Tween-80): 94 % of control
- T/C (dose: 200.0 mg/kg/injection, schedule: Q04DX003 (ip), vehicle: saline with Tween-80): 105 % of control
- T/C (dose: 400.0 mg/kg/injection, schedule: Q04DX003 (ip), vehicle: saline with Tween-80): 95 % of control

Structure (SMILES): O=C(O)CCC(=O)c1ccccc1
- T/C [8]: 97 % of control
- T/C [5]: 100 % of control
- T/C [1]: 97 % of control
- T/C (dose: 100.0 mg/kg/injection, schedule: Q04DX002 (ip), vehicle: Klucel (hydroxypropylcellulose) (HPC)): 97 % of control
- T/C (dose: 100.0 mg/kg/injection, schedule: Q04DX002 (ip), vehicle: saline with Tween-80): 108 % of control
- T/C [9]: 96 % of control
- T/C (dose: 200.0 mg/kg/injection, schedule: Q01DX009 (ip), vehicle: saline): 105 % of control
- T/C (dose: 200.0 mg/kg/injection, schedule: Q04DX002 (ip), vehicle: Klucel (hydroxypropylcellulose) (HPC)): 91 % of control
- T/C (dose: 200.0 mg/kg/injection, schedule: Q04DX002 (ip), vehicle: saline with Tween-80): 105 % of control
- T/C [10]: 107 % of control
- T/C (dose: 400.0 mg/kg/injection, schedule: Q04DX002 (ip), vehicle: Klucel (hydroxypropylcellulose) (HPC)): 87 % of control
- T/C (dose: 400.0 mg/kg/injection, schedule: Q04DX002 (ip), vehicle: saline with Tween-80): 105 % of control

Structure (SMILES): COc1cc2c(cc1OC)C(CCN1C(=O)CCC1=O)NCC2 (stereo unspecified)
- T/C [11]: 92 % of control
- T/C [12]: 98 % of control

Structure (SMILES): CCCCCCCC(=O)N1CCCC1C(=O)NCCCCC(=O)O (stereo unspecified)
- T/C (dose: 25.0 mg/kg/injection, schedule: Q01DX001 (ip), vehicle: saline): 95 % of control
- T/C (dose: 50.0 mg/kg/injection, schedule: Q01DX001 (ip), vehicle: saline): 98 % of control
- T/C [2]: 95 % of control

Structure (SMILES): O=C(O)CC1(O)CCCC1
- T/C (dose: 25.0 mg/kg/injection, schedule: Q04DX003 (ip), vehicle: saline): 100 % of control
- T/C [13]: 96 % of control
- T/C [14]: 107 % of control

Structure (SMILES): CC(/C=C/C(O)=C1/C(=O)CNC1=O)=C\[C@@H](C)[C@H]1O[C@@]2(C)O[C@H](C(=O)[C@@H]3O[C@@]32C)[C@@H]1C
- T/C (dose: 25.0 mg/kg/injection, schedule: Q01DX009 (ip), vehicle: saline): 94 % of control
- T/C [8]: 100 % of control
- T/C (dose: 100.0 mg/kg/injection, schedule: Q01DX001 (ip), vehicle: acetone): 89 % of control
- T/C [1]: 93 % of control
- T/C (dose: 100.0 mg/kg/injection, schedule: Q04DX003 (ip), vehicle: acetone): 87 % of control
- T/C (dose: 200.0 mg/kg/injection, schedule: Q01DX001 (ip), vehicle: acetone): 89 % of control
- T/C (dose: 400.0 mg/kg/injection, schedule: Q01DX001 (ip), vehicle: acetone): 96 % of control

Structure (SMILES): C/C(=N/N=C(/C)c1ccccc1)c1ccccc1
- T/C (dose: 50.0 mg/kg/injection, schedule: Q04DX003 (ip), vehicle: Klucel (hydroxypropylcellulose) (HPC)): 110 % of control
- T/C [5]: 96 % of control
- T/C [6]: 94 % of control
- T/C [9]: 100 % of control
- T/C (dose: 200.0 mg/kg/injection, schedule: Q04DX003 (ip), vehicle: Klucel (hydroxypropylcellulose) (HPC)): 103 % of control
- T/C [10]: 96 % of control
- T/C [7]: 97 % of control

Structure (SMILES): O=C(Nc1ccc(Cl)cc1C(F)(F)F)Oc1ccc(OCc2ccccc2)cc1
- T/C [11]: 94 % of control
- T/C [12]: 100 % of control
- T/C (dose: 400.0 mg/kg/injection, schedule: Q01DX009 (ip), vehicle: saline with Tween-80): 92 % of control

Structure (SMILES): O=NN(CCBr)C(=O)Nc1ccccc1
- T/C (dose: 111.0 mg/kg/injection, schedule: Q01DX001 (ip), vehicle: carboxymethylcellulose (CMC)): 153 % of control
- T/C (dose: 222.0 mg/kg/injection, schedule: Q01DX001 (ip), vehicle: carboxymethylcellulose (CMC)): 161 % of control
- T/C (dose: 444.0 mg/kg/injection, schedule: Q01DX001 (ip), vehicle: carboxymethylcellulose (CMC)): 124 % of control

Structure (SMILES): COc1ccc2c(=O)cc(-c3ccccc3)[nH]c2c1
- T/C [13]: 100 % of control
- T/C (dose: 100.0 mg/kg/injection, schedule: Q01DX009 (ip), vehicle: other): 122 % of control
- T/C [14]: 106 % of control
- T/C (dose: 200.0 mg/kg/injection, schedule: Q01DX009 (ip), vehicle: other): 123 % of control
- T/C (dose: 200.0 mg/kg/injection, schedule: Q04DX003 (ip), vehicle: saline): 101 % of control
- T/C (dose: 400.0 mg/kg/injection, schedule: Q04DX003 (ip), vehicle: saline): 104 % of control
